Measurements from US4229466A, “Sesquiterpene derivatives having anti-complementary activity” (Otsuka Pharmaceutical Co., Ltd., priority 1977, dated 1980).

Key:
[1] = system: Nephrotoxin-Type Nephritis; assay: Therapeutic effect on nephrotoxin-type nephritis (proteinuria); format: in vivo, male Wistar rats; conditions: same test as Table 3; result in words
Description: Rat nephrotoxin ("NT" for brevity) was obtained as described below. Rat kidney cortex was homogenized with an equal quantity of physiological saline. The homogenized mixture was mixed with Freund's complete adjuvant (a product of Difco Company) in a volume ratio of 1:1. Two milliliters of the resulting mixture was intramuscularly injected into a rabbit (body weight 3,100 g) to immunize the rabbit. A month and a half later, blood was taken from the heart of the rabbit and serum was obtained. The resulting serum was inactivated at 56° C. for 30 minutes, then salted out with a 40% saturated aqueous solution of ammonium sulfate, and fractionated. The γ-globulin (IgG) fraction was collected to obtain NT.
The evaluation was carried out using male Wistar rats with a body weight of 150 to 160 g with three replications for each test compound. The test compound was intraperitoneally administered once every 24 hours for seven days. One hour after the administration of the test compound on the third day, the NT was applied. The NT was intravenously injected in an amount of 1 ml at a tail vein of each rat. Chlorophyllin (CP) was used as a comparison compound, and physiological saline solution was used as a control.
The proteinuria level (total amount excreted into the urine over a 24 hour period) was measured using turbidometry employing bovine serum albumin as a control by means of sulfosalicylic acid.

[2] = system: complement serum (guinea pig complement); assay: Anti-complement activity: 50% inhibition of hemolysis of sensitized erythrocytes; format: cell-based; conditions: Cavia porcellus, Erythrocyte, 1 h, 37° C., 60 minutes, guinea pig complement diluted 150 times, OD413, read-out: Anti-Complement Activity Value (50% hemolysis inhibitory activity value)
Description: The anti-complement activity was measured and confirmed by the testing method described in Meneki Kagaku (Immuno-Chemistry), Yuichi Yamamura et al., Ed. pages 830-834, Asakura Shoten, Tokyo, Japan (1973). Specifically,a test tube was charged with 0.5 ml of an aqueous dispersion of each of the test compounds, 0.5 ml of sensitized erythrocytes (EA) containing 1×10^8 cells/ml, 1 ml of a 5-fold diluted solution of a Veronal buffer solution containing gelatin, Ca^++ and Mg^++ (GVB^++), and 0.5 ml of complement serum (guinea pig complement) diluted to 150 times with the GVB^++. The mixture was maintained hot at 37° C. for 60 minutes. Then, 5 ml of an ice-cold physiological saline solution was added thereto, and the mixture was centrifuged. […] The 50% hemolysis inhibitory activity value (γ/ml) measured by the above method is shown in Table 2 below for each test compound.

[3] = system: Heymann-type Nephritis; assay: Therapeutic effects on Heymann-type nephritis (proteinuria); format: in vivo, male Wistar rats; conditions: test of Table 4; result in words
Description: Male Wistar rats with a body weight of 180 to 200 g were used in the test. Rat kidney cortex was extracted, and homogenized with an equal quantity by volume of a physiological saline solution. The homogenate was centrifuged at 1500 G for 1 hour. The supernatant liquid was purified in accordance with the method of T. S. […] The resulting mixture was injected intraperitoneally into isologous rats in an amount of 0.5 ml per rat. […] (This period was about 6 to 8 weeks.) […] CP was used as a comparison compound, and physiological saline solution was used as a control. Three replications were conducted for each test compound.

In the case of `CC1CCC2C(C)(C)C(O)C(O)CC2(C)C12Cc1c(O)cc(CO)c(C(=O)O)c1O2` (stereo not drawn) [(8), 6,7-Dihydroxy-2,5,5,8a-tetramethyl-1,2,3,4,4a,5,6,7,8,8a-decahydronaphthalene-1-spiro-2'-(7'-carboxy-6'-hydroxymethyl-4'-hydroxy-2',3'-dihydrobenzofuran)], the “inhibition of the primary reaction of nephrotoxin-type nephritis” value (shortened to “inhibition”) [1] is reported as “found to inhibit the primary reaction”, the IC50 [2] is reported as 125 µg/mL and the “activity of curing Heymann-type nephritis” value (from here on “activity”) [3] is reported as “a substantial activity of curing Heymann-type nephritis”.

In the case of `CC1CCC2C(C)(C)C(O)C(O)CC2(C)C12Cc1c(O)cc(CO)c(CO)c1O2` (stereo not drawn) [(11), 6,7-Dihydroxy-2,5,5,8a-tetramethyl-1,2,3,4,4a,5,6,7,8,8a-decahydronaphthalene-1-spiro-2'-(6',7'-dihydroxymethyl-4'-hydroxy-2',3'-dihydrobenzofuran)], the “inhibition” value [1] is reported as “found to inhibit the primary reaction”, the IC50 [2] is reported as 500 µg/mL and the “activity” value [3] is reported as “a substantial activity of curing Heymann-type nephritis”.

In the case of `COc1cc(CO)c(CO)c2c1CC1(O2)C(C)CCC2C(C)(C)C(O)C(O)CC21C` (stereo not drawn) [(12), 6,7-Dihydroxy-2,5,5,8a-tetramethyl-1,2,3,4,4a,5,6,7,8,8a-decahydronaphthalene-1-spiro-2'-(6',7'-dihydroxymethyl-4'-methoxy-2',3'-dihydrobenzofuran)], the “inhibition” value [1] is reported as “found to inhibit the primary reaction”, the IC50 [2] is reported as 250 µg/mL and the “activity” value [3] is reported as “a substantial activity of curing Heymann-type nephritis”.

`CC(=O)OCc1cc(OC(C)=O)c2c(c1COC(C)=O)OC1(C2)C(C)CCC2C(C)(C)C(OC(C)=O)C(OC(C)=O)CC21C` (stereo not drawn) [Compound No. (25), 6,7-Diacetyloxy-2,5,5,8a-tetramethyl-1,2,3,4,4a,5,6,7,8,8a-decahydronaphthalene-1-spiro-2'-(6',7'-diacetyloxymethyl-4'-acetyloxy-2',3'-dihydrobenzofuran)] was tested, and the “inhibition” value [1] was “found to inhibit the primary reaction”, the IC50 [2] was 600 µg/mL and the “activity” value [3] was “a substantial activity of curing Heymann-type nephritis”.

For `CC1CCC2C(C)(C)C3OC(C)(C)OC3CC2(C)C12Cc1c(O)cc3c(c1O2)C(=O)OC3` (stereo not drawn) [Compound No. (62), 4-Hydroxy-8-oxo-2,3,6,8-tetrahydro-furo[3,4-g]benzofuran-2-spiro-1'-(6',7'-isopropylidenedioxy-2',5',5',8'a-tetramethyl-1',2',3',4',4'a,5',6',7',8',8'a-decahydronaphthalene)], the “inhibition” value [1] was “found to inhibit the primary reaction”, the IC50 [2] was 450 µg/mL and the “activity” value [3] was “a substantial activity of curing Heymann-type nephritis”.
